Where “and” joins values, the source holds several entries; their conditions need not be identical. Equal entries are not always repeated. Each block holds one compound with its values, some of them ahead of it.
Tested on: K-562 leukemia growth, % test/control
Assay: Anticancer human tumor K-562 cell line growth inhibition;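 further: spheroids exposed to compounds for 7 days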;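 on viability, T/C: 100% = DMSO vehicle wells and lower values mean fewer viable cells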
Details: spheroids with HUVEC and MSC; for viability, T/C: stronger effect = lower value
Description: Multicellular complex tumor spheroid response to LSD1 Inhibitor Iadademstat in combination with a variety of drugs and investigational agents in selected tumor cell lines
The current study was undertaken to assess response to LSD1 inhibitors in combination with standard-of-care drugs and investigational agents in solid tumor complex spheroid models as well as in the K-562 leukemia. Complex spheroids include a stromal component modeled by human endothelial cells (HUVEC) and fibroblasts modeled by human mesenchymal stem cells (MSCs). The concentration ranges selected for each drug and investigational agent were based upon clinically achievable concentrations if the clinical Cmax of the agent was known.
Compounds. The drugs and investigational agents used in this study are listed on Table 1. All of the agents used, including staurosporine (NSC755774) and gemcitabine (NSC613327), were obtained from the Developmental Therapeutics Program, NCI. FDA-approved anticancer drugs are available from the NCI at http://dtp.nci.nih.gov/branches/dscb/oncology_drugset_explanation.html. Drugs and investigational agents were >95% pure by proton nuclear magnetic resonance (NMR) and liquid chromatography/mass spectrometry (LC/MS). Stock solutions were prepared at 400x in DMSO, stored at -70 degrees C, and diluted in fresh medium prior to their use. The final concentration of DMSO in cell culture wells never exceeded 0.25% (v/v). The FDA-approved anticancer drug set is available from the Developmental Therapeutics Program at https://dtp.cancer.gov/organization/dscb/obtaining/available_plates.htm. All drugs and investigational agents were tested over a range starting from a high concentration at or near the clinical Cmax and decreasing in half-log increments. If the clinical Cmax for an agent had not been determined, the highest concentration tested was 10 microM.
Cell Lines. The patient-derived cancer cell (PDC) lines: 292921-168-R-J2-PDC, K24384-001-R-PDC, and 521955-158-R2-J5-PDC pancreatic carcinomas, 556581-035-R-J1 ovarian carcinoma, 324938-238-R-J1-PDC, 855422-203-R-J1-PDC and 883617-216-R-J1-PDC urothelial bladder carcinomas, 743489-274-T-PDC renal cell carcinoma, 138582-R-J1 Merkel cell tumor, K60290-347-R-J1 and K57222-313-R-J1-PDC glioblastomas, 653999-131-R-J2-PDC, LG0703-F948-PDC, and 349418-098-R-PDC non-small cell lung carcinomas, 885512-296-R-J2-PDC, 171881-019-R-J1-PDC breast carcinomas and 186277-243-T-J2-PDC and 233499-124-R-J2-PDC colon carcinomas were obtained from the NCI Patient-Derived Models Repository (PDMR, https://pdmr.cancer.gov). The established cell lines NCI/ADR-RES (RRID:CVCL_14520 and OVCAR-5 (RRID:CVCL_1628) ovarian carcinomas, 786-O (RRID:CVCL_1051) and A498 (RRID:CVCL_A498) renal cell carcinoma, NCI-H211 (ATCC, cat. CRL-5824; RRID:CVCL_1529), NCI-H196 (ATCC, cat. CRL-5823, RRID:CVCL_1509), SW 1271 (ATCC, cat. CRL-2177, RRID:CVCL_1716) and NCI-H1876 (ATCC, cat. CRL-5902, RRID:CVCL_1503) small cell lung carcinomas, MDA-MB-231 (RRID:CVCL_0062) and MDA-MB-468 (RRID:CVCL_0419)breast carcinomas (10-12). Pooled donor human umbilical vein endothelial cells (HUVEC, Lonza, cat. CC-2519) and human mesenchymal stem cells (hMSC, Lonza, cat. PT-2501) were purchased from Lonza (Walkersville, MD).
Cell Culture. All cells were maintained in an incubator at 37 degrees C and 5% CO2 with 95% humidity. The PDC lines were cultured according to standard operating procedures established by the NCI PDMR (https://pdmr.cancer.gov). Briefly all PDCs were thawed and cultured in Matrigel-coated flasks prepared with a working solution of 1X Ham's F-12 nutrient mix, without supplementation (Invitrogen, Waltham, MA, cat. 11765054), 100 U/mL penicillin-streptomycin (Invitrogen, cat. 15140122), and 2.5% Matrigel (Corning Inc., Corning, NY, cat. 354248) for the first three passages. […]

- IC50 (curve of compound): > 3000 nM and 2140 nM
Structure (SMILES): CCN(c1cc(-c2ccc(CN3CCOCC3)cc2)cc(C(=O)NCc2c(C)cc(C)[nH]c2=O)c1C)C1CCOCC1
- viability, T/C (compound 0.00949 µM): 110% and 112%
- viability, T/C (compound 0.03 µM): 107% and 112%
- viability, T/C (compound 0.0949 µM): 105% and 114%
- viability, T/C (compound 0.3 µM): 105%
- viability, T/C (compound 0.949 µM): 107% and 76.7%
- viability, T/C (compound 3 µM): 104% and 38.9%

Structure (SMILES): CCc1c2c(nc3ccc(O)cc13)-c1cc3c(c(=O)n1C2)COC(=O)[C@]3(O)CC + NC1CC1c1ccc(-c2cccc(O)c2)cc1
- IC50 (curve of first compound, second compound 0.1 µM): < 0.949 nM
- IC50 (curve of first compound, second compound 0.316 µM): < 0.949 nM
- IC50 (curve of first compound, second compound 1 µM): < 0.949 nM
- IC50 (curve of first compound, second compound 3.16 µM): < 0.949 nM
- IC50 (curve of first compound, second compound 10 µM): < 0.949 nM
- viability, T/C (second compound 0.1 µM, first compound 0.000949 µM): 10.6%
- viability, T/C (second compound 0.1 µM, first compound 0.003 µM): 4.88%
- viability, T/C (second compound 0.1 µM, first compound 0.00949 µM): 2.16%
- viability, T/C (second compound 0.1 µM, first compound 0.03 µM): 0.75%
- viability, T/C (second compound 0.1 µM, first compound 0.0949 µM): 0.56%
- viability, T/C (second compound 0.1 µM, first compound 0.3 µM): 0.55%
- viability, T/C (second compound 0.316 µM, first compound 0.000949 µM): 8.09%
- viability, T/C (second compound 0.316 µM, first compound 0.003 µM): 3.51%
- viability, T/C (second compound 0.316 µM, first compound 0.00949 µM): 1.86%
- viability, T/C (second compound 0.316 µM, first compound 0.03 µM): 0.71%
- viability, T/C (second compound 0.316 µM, first compound 0.0949 µM): 0.44%
- viability, T/C (second compound 0.316 µM, first compound 0.3 µM): 0.5%
- viability, T/C (second compound 1 µM, first compound 0.000949 µM): 7.04%
- viability, T/C (second compound 1 µM, first compound 0.003 µM): 3.48%
- viability, T/C (second compound 1 µM, first compound 0.00949 µM): 1.67%
- viability, T/C (second compound 1 µM, first compound 0.03 µM): 0.89%
- viability, T/C (second compound 1 µM, first compound 0.0949 µM): 0.51%
- viability, T/C (second compound 1 µM, first compound 0.3 µM): 0.57%
- viability, T/C (second compound 3.16 µM, first compound 0.000949 µM): 7.47%
- viability, T/C (second compound 3.16 µM, first compound 0.003 µM): 4.23%
- viability, T/C (second compound 3.16 µM, first compound 0.00949 µM): 2.63%
- viability, T/C (second compound 3.16 µM, first compound 0.03 µM): 0.67%
- viability, T/C (second compound 3.16 µM, first compound 0.0949 µM): 0.46%
- viability, T/C (second compound 3.16 µM, first compound 0.3 µM): 0.55%
- viability, T/C (second compound 10 µM, first compound 0.000949 µM): 5.81%
- viability, T/C (second compound 10 µM, first compound 0.003 µM): 2.92%
- viability, T/C (second compound 10 µM, first compound 0.00949 µM): 1.32%
- viability, T/C (second compound 10 µM, first compound 0.03 µM): 0.74%
- viability, T/C (second compound 10 µM, first compound 0.0949 µM): 0.43%
- viability, T/C (second compound 10 µM, first compound 0.3 µM): 1.23%

— PubChem BioAssay AID1918948 (Molecular Pharmacology Branch, DTP, NCI, 2023)
